# Test results as given in patent US7135299B2, “Catalase-inactivating compounds and the use thereof” (priority 2001, dated 2006).
# Experiments:
# [1] = target: T1, catalase from ox liver (as active endogenous catalase) (Bos taurus, UniProt P00432); test: Catalase inactivation test: oxygen evolution from hydrogen peroxide measured as pressure in a closed tube, active endogenous catalase; type: biochemical; details: 35 units of catalase from ox liver in 1 ml sample, 7 ml solution of the title compound, 0.23 g hydrogen peroxide 30%, 15 minutes at room temperature
# T1 construct: catalase from ox liver (as active endogenous catalase); from tissue; host or cells: ox liver
# T1 sequence (P00432 2-527 limits assumed): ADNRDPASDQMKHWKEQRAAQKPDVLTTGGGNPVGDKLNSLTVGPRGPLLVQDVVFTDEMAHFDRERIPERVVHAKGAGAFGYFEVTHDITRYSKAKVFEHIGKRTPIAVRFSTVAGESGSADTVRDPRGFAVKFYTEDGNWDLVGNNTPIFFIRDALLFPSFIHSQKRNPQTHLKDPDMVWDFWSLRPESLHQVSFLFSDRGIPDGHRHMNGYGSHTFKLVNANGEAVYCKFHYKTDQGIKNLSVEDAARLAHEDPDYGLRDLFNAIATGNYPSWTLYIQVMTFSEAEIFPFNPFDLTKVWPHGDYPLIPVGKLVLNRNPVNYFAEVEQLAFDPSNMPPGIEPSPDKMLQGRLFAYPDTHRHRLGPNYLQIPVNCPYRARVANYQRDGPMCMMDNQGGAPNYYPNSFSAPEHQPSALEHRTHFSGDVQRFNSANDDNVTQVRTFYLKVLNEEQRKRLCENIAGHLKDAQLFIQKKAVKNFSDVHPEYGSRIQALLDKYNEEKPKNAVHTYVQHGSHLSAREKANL
# Description: (§1) The following reagents are provided: • catalase from ox liver (as active endogenous catalase) • catalase from Aspergillus niger (as active intracellular catalase) • catalase from microorganisms^(*) (as active intracellular catalase) • antifoam (RD® from Dow Corning) • hydrogen peroxide (Perhydrol® 30% from Merck) ^(*)various bacteria and/or fungi
# (§2) Each sample contains in each case 35 units of catalase from ox liver or from Aspergillus niger or from microorganisms per ml of distilled water. The 1 ml sample is put in a 15 ml tube (Vacutainer® 16×125 mm from Becton Dickinson), and in each case 7 ml of the aforementioned solution of the title compound are added and mixed therewith (Vortex® Genie 2 mixer from Merck). Then 1 drop of said antifoam is added and mixing is repeated. Thereafter 0.23 g of said hydrogen peroxide is added, and the tube is immediately made gas-tight with a stopper made of chemical-resistant elastic plastic (Viton® from Du Pont de Nemours), briefly (for a few seconds) ventilated with the aid of a hollow needle (Ø1 mm hypodermic needle) piercing the stopper and, immediately thereafter, closed gas-tight again by withdrawing the hollow needle from the stopper. The tube which has been closed gas-tight is left to stand at room temperature for 15 minutes. […] The pressure in the tube is then measured (cf. the description hereinafter of the preferred pressure gage). […]
# [2] = test system: catalase from Aspergillus niger / catalase from microorganisms (as active intracellular catalase); test: Catalase inactivation test: oxygen evolution from hydrogen peroxide measured as pressure in a closed tube, active intracellular catalase; type: biochemical, Aspergillus niger; various bacteria and/or fungi; details: 35 units of catalase from Aspergillus niger or from microorganisms in 1 ml sample, 7 ml solution of the title compound, 0.23 g hydrogen peroxide 30%, 15 minutes at room temperature
# Description: as §1, §2
substance,measurement,setting,value
CH2═CH—COO—SO2—O—C12H25,catalase activity by oxygen evolution (pressure in the tube),[1],the pressure in the tube does not increase
same,catalase activity by oxygen evolution (pressure in the tube),[2],the pressure in the tube increases
